Consider 18 molecules from patent US9133148B2, “Carbamate compounds and of making and using same” (Abide Therapeutics, Inc., priority 2012, dated 2015).

Broadly, the inhibition is the percentage by which the read-out fell short of the control. The low end stands for a weak effect, the high end for a strong effect.

Common to all, as to type: biochemical
In experiment [1] the target is MAGL (Mus musculus (Mouse), UniProt O35678). Kind of experiment: Competitive ABPP, % inhibition at 1 uM, MAGL. Here is the method:
(§1) In Vitro Competitive Activity-Based Protein Profiling.
(§2) Proteomes (mouse brain membrane fraction or cell lysates) ([…], 1.0 mg/mL total protein concentration) were preincubated with varying concentrations of inhibitors at 37° C. After 30 min, FP-Rh (1.0 μL, 50 μM in DMSO) was added and the mixture was incubated for another 30 min at 37° C. Reactions were quenched with SDS loading buffer (50 μL—4×) and run on SDS-PAGE.

In experiment [2] the target is FAAH (Mus musculus (Mouse), UniProt O08914). In words: Competitive ABPP, % inhibition at 1 uM, FAAH. Here is the method:
as §1
Proteomes (mouse brain membrane fraction or cell lysates) ([…], 1.0 mg/mL total protein concentration) were preincubated with varying concentrations of inhibitors at 37° C. After 30 min, FP-Rh (1.0 μL, 50 μM in DMSO) was added and the mixture was incubated for another 30 min at 37° C. Reactions were quenched with SDS loading buffer (50 μL—4×) and run on SDS-PAGE. Following gel imaging, serine hydrolase activity was determined by measuring fluorescent intensity of gel bands corresponding to MAGL, ABHD6 and FAAH using ImageJ 1.43u software.

Experiment [3] addresses ABHD6 (Mus musculus (Mouse), UniProt Q8R2Y0). In words: Competitive ABPP, % inhibition at 1 uM, ABHD6. The protocol:
as §1, §2

Chain of FAAH (O08914 whole entry): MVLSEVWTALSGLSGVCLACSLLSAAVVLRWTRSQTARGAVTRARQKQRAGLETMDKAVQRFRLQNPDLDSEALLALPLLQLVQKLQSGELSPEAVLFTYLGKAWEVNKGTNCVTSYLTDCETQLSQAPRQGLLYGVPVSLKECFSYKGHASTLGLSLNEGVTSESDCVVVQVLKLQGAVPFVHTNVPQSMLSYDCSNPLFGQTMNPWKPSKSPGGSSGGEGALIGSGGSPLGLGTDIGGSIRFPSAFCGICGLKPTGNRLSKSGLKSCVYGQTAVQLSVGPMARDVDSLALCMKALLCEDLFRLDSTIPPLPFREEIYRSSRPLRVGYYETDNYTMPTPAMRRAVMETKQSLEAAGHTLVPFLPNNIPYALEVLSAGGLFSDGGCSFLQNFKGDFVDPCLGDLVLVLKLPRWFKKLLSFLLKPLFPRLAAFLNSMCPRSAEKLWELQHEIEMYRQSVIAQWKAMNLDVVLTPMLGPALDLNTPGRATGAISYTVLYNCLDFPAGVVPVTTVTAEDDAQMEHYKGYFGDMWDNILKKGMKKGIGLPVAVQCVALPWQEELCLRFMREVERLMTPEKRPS
Chain of MAGL (O35678 whole entry): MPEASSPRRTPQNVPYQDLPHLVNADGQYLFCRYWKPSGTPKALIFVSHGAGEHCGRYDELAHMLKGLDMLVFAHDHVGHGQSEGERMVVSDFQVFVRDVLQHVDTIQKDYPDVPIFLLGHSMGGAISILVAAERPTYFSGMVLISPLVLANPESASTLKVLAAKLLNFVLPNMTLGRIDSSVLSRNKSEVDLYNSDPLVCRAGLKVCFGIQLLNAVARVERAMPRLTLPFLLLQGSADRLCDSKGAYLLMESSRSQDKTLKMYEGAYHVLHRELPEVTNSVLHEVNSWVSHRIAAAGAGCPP
Chain of ABHD6 (Q8R2Y0 whole entry): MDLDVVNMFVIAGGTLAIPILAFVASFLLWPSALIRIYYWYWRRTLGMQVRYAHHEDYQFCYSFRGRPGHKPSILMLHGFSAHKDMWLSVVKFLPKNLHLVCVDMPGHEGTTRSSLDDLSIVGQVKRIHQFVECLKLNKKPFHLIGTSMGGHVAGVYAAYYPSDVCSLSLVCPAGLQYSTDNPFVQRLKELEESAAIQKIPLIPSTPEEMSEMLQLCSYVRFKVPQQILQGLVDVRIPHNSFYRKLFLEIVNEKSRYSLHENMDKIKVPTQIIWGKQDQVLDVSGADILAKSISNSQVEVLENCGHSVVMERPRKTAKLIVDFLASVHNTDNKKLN

Regarding `C[C@@H]1CN(Cc2ccc(N3CCOCC3)cc2F)CCN1C(=O)OC(C(F)(F)F)C(F)(F)F` [Example 9k, 1,1,1,3,3,3-hexafluoropropan-2-yl(2R)-4-[[2-fluoro-4-(morpholin-4-yl)phenyl]methyl]-2-methylpiperazine-1-carboxylate], the inhibition at 1 µM in experiment [1], in experiment [2] and in experiment [3] was below 25% in each case.

In the case of `C[C@H]1CN(Cc2ccc(N3CCOCC3)cc2F)CCN1C(=O)OC(C(F)(F)F)C(F)(F)F` [Example 9i, 1,1,1,3,3,3-hexafluoropropan-2-yl(2S)-4-[[2-fluoro-4-(morpholin-4-yl)phenyl]methyl]-2-methylpiperazine-1-carboxylate], the inhibition at 1 µM was 25 to 75% in experiment [1], below 25% in experiment [2] and 25 to 75% in experiment [3].

For the molecule `C[C@@H]1CN(Cc2ccc(N3CCOCC3)cc2Cl)CCN1C(=O)OC(C(F)(F)F)C(F)(F)F` [Example 9am, 1,1,1,3,3,3-hexafluoropropan-2-yl(2R)-4-[[2-chloro-4-(morpholin-4-yl)phenyl]methyl]-2-methylpiperazine-1-carboxylate], the inhibition at 1 µM in experiment [1], in experiment [2] and in experiment [3] was below 25% each time.

In the case of `Cc1cc(-c2ccncc2C)ccc1CN1CCN(C(=O)OC(C(F)(F)F)C(F)(F)F)CC1` [Example 11n, 1,1,1,3,3,3-hexafluoropropan-2-yl 4-[[2-methyl-4-(3-methylpyridin-4-yl)phenyl]methyl]piperazine-1-carboxylate], the results for the inhibition at 1 µM in experiment [1], in experiment [2] and in experiment [3] were above 75%, below 25% and above 75%, respectively.

With `Cc1cccc(-c2ccc(CN3CCN(C(=O)OC(C(F)(F)F)C(F)(F)F)CC3)c(F)c2)n1` [Example 11ac, 1,1,1,3,3,3-hexafluoropropan-2-yl 4-[[2-fluoro-4-(6-methylpyridin-2-yl)phenyl]methyl]piperazine-1-carboxylate], the inhibition at 1 µM is above 75% in experiment [1], below 25% in experiment [2] and 25 to 75% in experiment [3].

Turning to `Cc1cccc(-c2ccc(CN3CCN(C(=O)OC(C(F)(F)F)C(F)(F)F)CC3)c(C)n2)c1` [Example 11d, 1,1,1,3,3,3-hexafluoropropan-2-yl 4-[[2-methyl-6-(3-methylphenyl)pyridin-3-yl]methyl]piperazine-1-carboxylate], the figures for the inhibition at 1 µM in experiment [1], in experiment [2] and in experiment [3] were above 75%, below 25% and 25 to 75%, respectively.

As to `CC(C)c1cc(N2CCOCC2)ccc1CN1CCN(C(=O)OC(C(F)(F)F)C(F)(F)F)CC1` [Example 9bc, 1,1,1,3,3,3-hexafluoropropan-2-yl 4-[[4-(morpholin-4-yl)-2-(propan-2-yl)phenyl]methyl]piperazine-1-carboxylate], the inhibition at 1 µM in experiment [1] was 25 to 75%; in experiment [2], below 25%; in experiment [3], below 25%.

Turning to `Cc1cccc(-c2ccc(CN3CCN(C(=O)OC(C(F)(F)F)C(F)(F)F)CC3)c(C)c2)n1` [Example 11z, 1,1,1,3,3,3-hexafluoropropan-2-yl 4-[[2-methyl-4-(6-methylpyridin-2-yl)phenyl]methyl]piperazine-1-carboxylate], the values for the inhibition at 1 µM in experiment [1], in experiment [2] and in experiment [3] were 25 to 75%, below 25% and 25 to 75%, respectively.

For `Cc1cc(-c2ccc(CN3CCN(C(=O)OC(C(F)(F)F)C(F)(F)F)CC3)c(C)c2)cc(C)n1` [Example 11m, 1,1,1,3,3,3-hexafluoropropan-2-yl 4-[[4-(2,6-dimethylpyridin-4-yl)-2-methylphenyl]methyl]piperazine-1-carboxylate], the inhibition at 1 µM in experiment [1] was 25 to 75%; in experiment [2], below 25%; in experiment [3], 25 to 75%.

Consider `O=C(OC(C(F)(F)F)C(F)(F)F)N1CCN(Cc2cccc(Cl)c2C(=O)N2CCOCC2)CC1` [Example 9bf, 1,1,1,3,3,3-hexafluoropropan-2-yl 4-(3-chloro-2-(morpholine-4-carbonyl)benzyl)piperazine-1-carboxylate], for which the inhibition at 1 µM in experiment [1] is 25 to 75%; in experiment [2] it was below 25%; in experiment [3], below 25%.

With `Cc1nc(CN2CCN(C(=O)OC(C(F)(F)F)C(F)(F)F)CC2)ccc1-c1cccc(F)c1` [Example 11w, 1,1,1,3,3,3-hexafluoropropan-2-yl 4-[[5-(3-fluorophenyl)-6-methylpyridin-2-yl]methyl]piperazine-1-carboxylate], the results for the inhibition at 1 µM in experiment [1], in experiment [2] and in experiment [3] were above 75%, below 25% and 25 to 75%, respectively.

Consider `Cc1cc(-c2cccnc2)ccc1CN1CCN(C(=O)OC(C(F)(F)F)C(F)(F)F)CC1` [Example 11l, 1,1,1,3,3,3-hexafluoropropan-2-yl 4-[[2-methyl-4-(pyridin-3-yl)phenyl]methyl]piperazine-1-carboxylate], for which the inhibition at 1 µM is above 75% in experiment [1], below 25% in experiment [2] and above 75% in experiment [3].

As for `O=C(OC(C(F)(F)F)C(F)(F)F)N1CCN(Cc2ccc(C(=O)N3CCCC3)cc2Cl)CC1` [Example 9bd, 1,1,1,3,3,3-hexafluoropropan-2-yl 4-(2-chloro-4-(pyrrolidine-1-carbonyl)benzyl)piperazine-1-carboxylate], the results for the inhibition at 1 µM in experiment [1], in experiment [2] and in experiment [3] were 25 to 75%, below 25% and 25 to 75%, respectively.

For the molecule `C[C@H]1CN(Cc2ccc(N3CCOCC3)cc2Cl)CCN1C(=O)OC(C(F)(F)F)C(F)(F)F` [Example 9al, 1,1,1,3,3,3-hexafluoropropan-2-yl(2S)-4-[[2-chloro-4-(morpholin-4-yl)phenyl]methyl]-2-methylpiperazine-1-carboxylate], the values for the inhibition at 1 µM in experiment [1], in experiment [2] and in experiment [3] were 25 to 75%, below 25% and 25 to 75%, respectively.

As for `Cc1cc(-c2cccnc2C)ccc1CN1CCN(C(=O)OC(C(F)(F)F)C(F)(F)F)CC1` [Example 11s, 1,1,1,3,3,3-hexafluoropropan-2-yl 4-[[2-methyl-4-(2-methylpyridin-3-yl)phenyl]methyl]piperazine-1-carboxylate], the inhibition at 1 µM in experiment [1] was 25 to 75%; in experiment [2], below 25%; in experiment [3] it was 25 to 75%.

With `C[C@@H]1CN(Cc2ccc(N3CCOCC3)cc2C(F)(F)F)CCN1C(=O)OC(C(F)(F)F)C(F)(F)F` [Example 9l, 1,1,1,3,3,3-hexafluoropropan-2-yl(2R)-2-methyl-4-[[4-(morpholin-4-yl)-2-(trifluoromethyl)phenyl]methyl]piperazine-1-carboxylate], the inhibition at 1 µM in experiment [1], in experiment [2] and in experiment [3] was below 25% in each case.

In the case of `Cc1nc(-c2cccc(F)c2)ccc1CN1CCN(C(=O)OC(C(F)(F)F)C(F)(F)F)CC1` [Example 11e, 1,1,1,3,3,3-hexafluoropropan-2-yl 4-[[6-(3-fluorophenyl)-2-methylpyridin-3-yl]methyl]piperazine-1-carboxylate], the figures for the inhibition at 1 µM in experiment [1], in experiment [2] and in experiment [3] were above 75%, below 25% and 25 to 75%, respectively.

Consider `Cc1cccc(-c2ccc(CN3CCN(C(=O)OC(C(F)(F)F)C(F)(F)F)CC3)nc2C)c1` [Example 11ad, 1,1,1,3,3,3-hexafluoropropan-2-yl 4-[[6-methyl-5-(3-methylphenyl)pyridin-2-yl]methyl]piperazine-1-carboxylate], for which the inhibition at 1 µM was above 75% in experiment [1], below 25% in experiment [2] and 25 to 75% in experiment [3].
